# Source: US20200316087A1, “NOVEL COMBINATION THERAPY FOR ANXIETY DISORDERS, EPILEPSY, AND PAIN” (priority 2017, published 2020)
# Assays:
# [1] = test system: CFA-induced mechanical hyperalgesia; test: Complete Freund's adjuvant inflammatory pain, von Frey filament test; type: in vivo, rats
# Procedure: Complete Freund's adjuvant (CFA) contains Mycobacterium butyricum, inducing inflammation and an increase in paw thickness. 0.1 mL of CFA was injected in the right hind paw of Sprague Dawley male rats under isoflurane anaesthesia. Mechanical hyperalgesia may be measured 2-3 days after CFA treatment. Rats (n=6) are placed in elevated boxes with a mesh floor. Von Frey filaments (expressed in g) are applied perpendicularly to the hindpaws, starting with the lowest filament (1.4 g) then increased until hindpaw withdrawal is observed. After each measurement, rats receive the next dose of drug (every 20 min) until the maximum threshold (26 g) is observed. For the antagonist study, rats are pretreated with the benzodiazepine site antagonist (10 min) and then receive the next dose of drug (every 20 min) until the pre-CFA threshold was observed.
# 3PBC.HCl was dissolved in a mixture containing 10% ethanol, 50% propylene glycol, and 40% sterile water. BCCt was dissolved in propylene glycol and then heated in a water bath up to 70° C. Midazolam (Akorn, Inc.) was dissolved in 0.9% saline. Doses were expressed as the weight of the drug in milligrams per kilogram of body weight and drugs were administered intraperitoneally.
# Starting 2 days after CFA treatment, mechanical hyperalgesia was measured on days 0, 4, and 8. On days 1-3 and 5-7 rats were pretreated with either 3PBC.HCl (5.6 mg/kg), β-carboline-3-carboxylate-t-butyl ester (BCCt) (3.2 mg/kg) or saline twice a day (a.m. injections (9:00-10:30) and p.m. injections (5:00-6:30)) in their home cages. Rats were treated with midazolam (5.6 mg/kg) immediately after pretreatment of 3PBC.HCl, BCCt, or saline. On days 0 and 4, rats only received p.m. injections due to the mechanical hyperalgesia test done in the a.m.
# The anti-hyperalgesic effects of midazolam were quantified for each animal as percent maximal possible effect (MPE) for each drug dose by using the following formula: percent MPE=[(post-drug value for a behavioral response (g)−pre-drug value for a behavioral response)/(pre-CFA value-pre-drug value for a behavioral response)×100.
# PTZ seizure threshold = test: Pentylenetetrazole (PTZ, i.v.)-induced seizure threshold; type: in vivo, rats
# Procedure: Male […] Sprague-Dawley rats (Indianapolis, Ind.) were randomly assigned to treatment groups and dosed with vehicle (vehicle=1% carboxymethyl cellulose) with diazepam (0.1, 0.3, or 1 mg/kg) or test compound (3, 10, 30, or 60 mg/kg) 30 minutes prior to testing. Rats were placed in a restrainer and a winged infusion needle was inserted into the lateral tail vein. Intravenous infusion with 10 mg/ml PTZ at a rate of 0.5 ml/min was initiated until a clonic convulsion occurred, and the time to clonic convulsion was recorded in sec or a maximum of 4 min was recorded. Following infusion, rats are euthanized. The dose of PTZ required to elicit a clonic convulsion was calculated using the infusion rate, concentration of PTZ, time to clonic convulsion, and animal weight.
# [2] = test system: electroshock-induced seizures; test: Mouse electroshock-induced seizure model; type: in vivo; conditions: mice; for Electroshock to Criteria: MED producing maximal protection (0% seizures)
# Procedure: This assay detects effects of compounds that produce generalized seizures and those that dampen seizure spread. Male, CD1 mice (Taconic Farms) were studied at weights of 21-32 g. Mice=10/dose) were used with Wahlquist Model H stimulator with 0.2 sec stimulation with corneal electrodes. […] Mice were euthanized immediately following the test. Tonic extension was used as the primary endpoint.
# (§1) For the in vivo assays, minimal effective doses (MED) were calculated in mg/kg. MED was defined as the lowest dose administered that produced statistically significant protection compared to vehicle control in the anticonvulsant assays. The MED, or minimal toxic dose (MTD) for motor impairment, was the minimal dose required to produce statistically-significant impairment in motor performance. Doses tested are shown in the figures and tables and are generally dosed in ½ log increments. The protective index (PT) was calculated at the MTD/MED.
# [3] = test system: seizures in amygdala kindled rats; test: Basolateral amygdala kindling; type: in vivo
# Procedure: Seizure kindling models evaluate effects of drugs on the sensitization of the nervous system to seizure induction. In this test, drugs were evaluated for their ability to impact seizure parameters in rats that were fully kindled by daily electrical stimulation of their amygdala. Valproic acid was used as a positive control. Experiments were conducted using the general procedures of Zwart et al. (J. Pharmacol. Exp. Ther., 2014, 351:124-133). A bipolar electrode for electrical stimulation and EEG recording was stereotaxically implanted into one hemisphere of the basolateral amygdala (AP −2.2, ML −4.8, DV −8.5 mm, relative to bregma) of male Wistar rats. After post-operative recovery, electrical kindling begins, where a subthreshold constant current (400 μA, 1 ms, monophasic square-wave pulses, 60 Hz for 1 sec) is given once a day Monday-Friday for about 4-6 weeks until a rat is fully kindled. A fully kindled rat has experienced 10 consecutive stage 5 seizures or 10 of its last 12 were stage 5 according to the Racine Scale.
# Twelve fully kindled rats were assigned to this study, and eight rats were selected and randomized to initial compound treatment groups from baseline after discharge threshold (ADT), seizure severity score, and after discharge duration (ADD). […] On test day, rats were dosed 30 min prior to beginning stimulation. After the pre-treatment, rats were stimulated using an ascending staircase sequence beginning at 10 μA and increasing in log unit steps of 10, 16, 25, 40, 65, 100, 160, 250, and 400 μA. Animals were stimulated until they were assigned a Seizure Severity Score for a visually observably seizure or they reached the 400 μA threshold limit. ADD was determined following testing. ADT was the current that induced a seizure; measurements were scale-adjusted to capture the stimulation scale change required to observe a seizure from the previous baseline to the ADT scored on test day. […] The average scale adjusted ADT was approximately 0.63 μA in vehicle treated rats.
# Racine score of behavioral response to stimulation: 0=no behavioral response; 1=immobility, staring and/or facial clonus; 2=head nodding, jaw clonus, and/or tongue protrusion; 3=unilateral forelimb clonus; 4=bilateral forelimb clonus and/or rearing; 5=bilateral forelimb clonus with rearing and loss of balance.
# After-Discharge Duration (ADD) is the duration of the first after-discharge.
# ADT, ADD, and severity scores were analyzed by ANOVA. Seizure severity data was also analyzed by the nonparametric Skillings-Mack test, a generalization of the Friedman test for one-way repeated measures designs. Posthoc tests when reported were either by Dunnett's method (seizure severity) or using Wilcoxon sign rank tests (ADT and ADD). Valproic acid, used as a positive control was not used in ANOVA calculations.
# [4] = test system: motor performance on an inverted screen; test: Rat inverted screen test (motor impairment); conditions: rats
# Source text: The motor effects of Diazepam and KRM-II-81 were studied on the inverted screen. The inverted screen test is used to measure whether or not a test compound induces muscle relaxation. When a test subject is placed on a wire screen which is then inverted, the reaction is to climb to the opposite side so they are no longer hanging upside down.
# Male, Sprague Dawley rats (Harlan Sprague Dawley, Indianapolis, Ind.) were used and weighed 90-110 g when evaluated in experiments. […] Rats were placed onto the top of a wire screen, which was then inverted so that the rats were hanging upside down.
# Male Sprague-Dawley rats (n=5) were dosed i.p. (vehicle=1% carboxymethyl cellulose) with diazepam (3, 10, or 30 mg/kg), KRM-II-81 (10, 30, or 60 mg/kg) or HZ-166 (30 mg/kg) 30 minutes prior to testing. Rats were placed onto the top of a wire screen, which was then inverted so that the rats were hanging upside down. […] Results were analyzed using ANOVA (Dunnett's test: *P<0.05).
# as §1
# PTZ-induced clonus = test: Pentylenetetrazole (PTZ, 35 mg/kg s.c.)-induced clonic convulsions; type: in vivo; conditions: rats; for PTZ Clonus to Criteria 1: MED producing maximal protection (0% seizures); for PTZ Clonus Potency (MED): lowest dose with statistically significant protection; for PTZ Clonus Potency (MED) / protection against PTZ-induced clonus: PTZ 35 mg/kg s.c.
# Procedure: After the inverted screen test, the rats were dosed with pentylenetetrazole (PTZ)(35 mg/kg, s.c.) in a volume of 1 ml/kg and placed in an observation cage (40.6×20.3×15.2 cm) with a floor containing […] of wood chip bedding material. PTZ dose was determined to be ˜EC97 for producing clonic convulsions.
# [5] = test system: human (α2), or rat (α1, α3, α5, γ2L, β3) GABAA receptor subunits; test: Whole-cell patch-clamp GABA current responses in transfected HEK-293T cells; type: cell-based; conditions: GABA EC3-5, drug concentration 100 nM
# Procedure: Human […] (HEK-293T) were transiently transfected with full-length cDNAs encoding human (α2), or rat (α1, α3, α5, γ2L, β3) GABAA receptor subunits using calcium phosphate precipitation. Positively transfected cells were isolated by utilizing co-transfection of a plasmid encoding a surface antibody (pHook™-1, Invitrogen). 20-52 hours following transfection, cells were mixed with magnetic beads coated with antigen specific for the pHook antibody, isolated with a magnetic stand, and then plated onto coverslips and used for patch-clamp recordings 18-28 hours later.
# Current responses to GABA were recorded in the whole-cell configuration, with cells voltage-clamped at −50 mV. The bath solution contained (in mM): 142 NaCl, 8.1 KCl, 6 MgCl2, 1 CaCl2), and 10 HEPES (4-(2-hydroxyethyl)-1-piperazineethanesulfonic acid) with pH=7.4 and osmolarity adjusted to 295-305 mOsm. The electrode (internal) solution consisted of (in mM); 153 KCl, 1 MgCl2, 5 K-EGTA (ethylene glycol-bis (β-aminoethyl ether N,N,N′N′-tetraacetate)), and 10 HEPES with pH=7.4 and osmolarity adjusted to 295-305 mOsm. […] Currents were recorded with an Axon 200B (Foster City, Calif.) patch clamp amplifier. […] Data were analyzed by two-way ANOVA followed by post-hoc Tukey's multiple comparison test. […]
# [6] = test system: immobility in forced-swim test; test: Forced-swim assay; type: in vivo, mice; conditions: male NIH Swiss mice, i.p., 30 min prior
# Procedure: Male NIH Swiss mice (Envigo, Indianapolis, Ind.) were studied. Mice were placed in clear plastic cylinders (diameter: 10 cm; height: 25 cm) filled with 6 cm of water (22-25° C.) for six min. […] The duration of immobility during the last four min of the six min test period was scored. A mouse was recorded as immobile when floating motionless or making only those movements necessary to keep its head above water.
smiles,measurement,setting,value
CCCOc1cc2c(cn1)[nH]c1ccccc12.Cl [3-PBC.HCl],percent maximal possible effect of midazolam,[1]; midazolam 5.6 mg/kg after 7 days of repeated midazolam with 3PBC.HCl (5.6 mg/kg) pretreatment twice a day,52 % MMPE
"CC(C)(C)OC(=O)c1cc2c(cn1)[nH]c1ccccc12 [BCCt, β-carboline-3-carboxylate-t-butyl ester]",percent maximal possible effect (MPE) of midazolam,[1]; midazolam 5.6 mg/kg after 7 days of repeated midazolam with BCCt (3.2 mg/kg) pretreatment twice a day,92 % MPE
"CCOC(=O)c1ncn2c1CN(C)C(=O)c1cc(F)ccc1-2 [Flumazenil, flumazenil]",effect on antinociceptive effects of KRM-II-81,"[1]; flumazenil pre-treatment before cumulative doses of KRM-II-81, CFA rats",dose-dependently attenuated
"C#Cc1ccc2c(c1)C(c1ccccn1)=NCc1c(C(=O)OCC)ncn1-2 [HZ-166, ethyl 8-ethynyl-6-(pyridin-2-yl)-4H-benzo[f]imidazo[1,5-a][1,4]diazepine-3-carboxylate, reference compound]",PTZ Threshold to Criteria,PTZ seizure threshold; MED for producing ≥2× PTZ seizure threshold at baseline,>60 mg/kg
same,PTZ Threshold Poteny (MED),"PTZ seizure threshold; lowest dose with statistically significant effect, rats, PTZ i.v.",>60 mg/kg
same,effect on dose of PTZ required to induce convulsions,"PTZ seizure threshold; rats, PTZ i.v. infusion, pretreatment 30 min",not active and displayed little protection up to 60 mg/kg
same,Electroshock to Criteria,[2],>30 mg/kg
same,"Electroshock (minimal effective dose, MED)",[2]; lowest dose with statistically significant protection vs vehicle,30 mg/kg
same,protection against electroshock-induced seizures,[2],not efficacious up to 30 mg/kg
same,After-Discharge Duration to Criteria,[3]; MED for producing after-discharge duration ≤30 sec,>60 mg/kg
same,After-Discharge Threshold to Criteria,[3]; MED for producing after-discharge threshold ≥3,>60 mg/kg
same,Seizure Severity to Criteria,[3]; MED for producing seizure severity score ≤2,>60 mg/kg
same,After-Discharge Duration Potency (MED),[3]; amygdala kindled rats,>60 mg/kg
same,After-Discharge Threshold Potency (MED),[3]; amygdala kindled rats,>60 mg/kg
same,Seizure Severity Poteny (MED),[3]; amygdala kindled rats,>60 mg/kg
same,Seizure free scores (seizure severity=0),"[3]; amygdala kindled rats, groups of 8",0/8
same,muscle relaxation on inverted screen (result in words),"[4]; i.p., 30 min prior, KRM-II-81 10-60 mg/kg, HZ-166 30 mg/kg",Neither HZ-166 nor KRM-II-81 induced significant muscle relaxation
same,dose at which signs of muscle relaxation began to appear,"[4]; i.p., inverted screen",30 mg/kg
same,PTZ Clonus to Criteria 1,PTZ-induced clonus,>30 mg/kg
same,PTZ Clonus Potency (MED),PTZ-induced clonus,>30 mg/kg
same,protection against PTZ-induced clonus,PTZ-induced clonus,did not significantly separate from vehicle up to 30 mg/kg
"C#Cc1ccc2c(c1)C(c1ccccn1)=NCc1c(-c3nc(CC)no3)ncn1-2 [MP-III-080, 3-ethyl-5-(8-ethynyl-6-(pyridin-2-yl)-4H-benzo[f]imidazo[1,5-a][1,4]diazepin-3-yl)-1,2,4-oxadiazole]",selectivity for α2 and α3 over α1,[5],selective for α2 and α 3 over α1
same,Electroshock to Criteria,[2],5.6 mg/kg
same,effect on motor performance,"[4]; up to 30 mg/kg, inverted screen",without significant effect on motor performance
same,immobility in forced-swim assay,[6],significantly decreased immobility time
same,PTZ Clonus to Criteria 1,PTZ-induced clonus,10 mg/kg
same,PTZ Clonus Potency (MED),PTZ-induced clonus,10 mg/kg
same,protection against PTZ-induced clonus,PTZ-induced clonus,dose-dependently suppressed
Cc1ncc2n1-c1ccc(Cl)cc1C(c1ccccc1F)=NC2 [midazolam],percent maximal possible effect (MPE) of midazolam,[1]; midazolam 5.6 mg/kg after 7 days of repeated midazolam with saline pretreatment,17 % MPE
same,"percent maximal possible effect (MPE), attenuation of mechanical hyperalgesia","[1]; midazolam 5.6 mg/kg i.p., Day 0, prior to repeated treatment, CFA rats",100 % MPE
